The molecules below were run against T1, human TRPA1 (Homo sapiens, UniProt O75762) (assay: Cell-based functional intracellular calcium ([Ca2+]i) assay, Fluo-4/Fluo-8, FlexStation, challenge with reference TRPA1 agonist (FFA, AITC or 4-HNE)). Details: not given.
T1 construct: expressed in transfected cells
Experimental: A stable HEK293 cell line that expresses human TRPA1 in an inducible manner was employed in this assay. […] The expression of TRPA1 was induced by including 1 μg/ml doxycycline in the culture medium. For the induced cells, ruthenium red (5 μM) was also added to minimize the constitutive TRPA1 channel activity and cells were used 14-18 hrs after induction. To measure [Ca^2+]i changes, cells were seeded in wells of 96-well plates at ˜100,000 cells/well and grown for 14-18 hrs to reach confluency. To prevent cell loss from subsequent washing, the wells were treated with 20 μg/ml polyornithine (MW>30,000, Sigma, St Louis, Mo.) for >15 min and rinsed once with Hank's balanced salt solution without Mg^2+ and Ca^2+. […] In some experiments, Fluo-8-AM was used instead of Fluo-4-AM as the calcium-sensitive fluorescent probe. Probenecid (2 mM) was included in all solutions to prevent the leakage of Fluo-4 or Fluo-8 from the cells. At the end of the incubation, cells were washed three times with ECS and placed in 80 μL of the same solution. Fluorescence changes were measured using a fluid handling integrated fluorescence plate reader, FlexStation (Molecular Devices, Sunnyvale, Calif.). Stock solutions of test compounds were initially solubilized in 100% DMSO and then serially diluted to achieve the desired final concentration. […] Drugs were diluted into ECS at 2× or 3× the desired final concentrations and delivered to the sample plate by an integrated robotic 8-channel pipettor at preprogrammed time points. […] Experiments were performed at 20-25° C. For certain experiments, 0.1% BSA was included with the cells and test compounds.
The kinetic data obtained at each test concentration of drug represents a series of fluorescent intensities as a function of time.
Using a sequential addition protocol, test compounds were initially applied to the cells loaded with Fluo-4 or Fluo-8 and fluorescence changes in each well monitored for 2.5 min. The plate was read again in a kinetic mode after a 15-30 min incubation with the test compounds after obtaining baseline values (about 30 s) and subsequent addition of challenge with a reference TRPA1 agonist. Reference TRPA1 agonists in testing each compound included at least one of flufenamic acid (FFA), allyl isothiocyanate (AITC) and 4-hydroxynonenal (4-HNE).
Antagonist activity can be expressed in terms of IC50 with respect to TRPA1 and agonist activity can be expressed in terms of EC50 with respect to TRPA1.

T1 sequence (O75762 whole entry): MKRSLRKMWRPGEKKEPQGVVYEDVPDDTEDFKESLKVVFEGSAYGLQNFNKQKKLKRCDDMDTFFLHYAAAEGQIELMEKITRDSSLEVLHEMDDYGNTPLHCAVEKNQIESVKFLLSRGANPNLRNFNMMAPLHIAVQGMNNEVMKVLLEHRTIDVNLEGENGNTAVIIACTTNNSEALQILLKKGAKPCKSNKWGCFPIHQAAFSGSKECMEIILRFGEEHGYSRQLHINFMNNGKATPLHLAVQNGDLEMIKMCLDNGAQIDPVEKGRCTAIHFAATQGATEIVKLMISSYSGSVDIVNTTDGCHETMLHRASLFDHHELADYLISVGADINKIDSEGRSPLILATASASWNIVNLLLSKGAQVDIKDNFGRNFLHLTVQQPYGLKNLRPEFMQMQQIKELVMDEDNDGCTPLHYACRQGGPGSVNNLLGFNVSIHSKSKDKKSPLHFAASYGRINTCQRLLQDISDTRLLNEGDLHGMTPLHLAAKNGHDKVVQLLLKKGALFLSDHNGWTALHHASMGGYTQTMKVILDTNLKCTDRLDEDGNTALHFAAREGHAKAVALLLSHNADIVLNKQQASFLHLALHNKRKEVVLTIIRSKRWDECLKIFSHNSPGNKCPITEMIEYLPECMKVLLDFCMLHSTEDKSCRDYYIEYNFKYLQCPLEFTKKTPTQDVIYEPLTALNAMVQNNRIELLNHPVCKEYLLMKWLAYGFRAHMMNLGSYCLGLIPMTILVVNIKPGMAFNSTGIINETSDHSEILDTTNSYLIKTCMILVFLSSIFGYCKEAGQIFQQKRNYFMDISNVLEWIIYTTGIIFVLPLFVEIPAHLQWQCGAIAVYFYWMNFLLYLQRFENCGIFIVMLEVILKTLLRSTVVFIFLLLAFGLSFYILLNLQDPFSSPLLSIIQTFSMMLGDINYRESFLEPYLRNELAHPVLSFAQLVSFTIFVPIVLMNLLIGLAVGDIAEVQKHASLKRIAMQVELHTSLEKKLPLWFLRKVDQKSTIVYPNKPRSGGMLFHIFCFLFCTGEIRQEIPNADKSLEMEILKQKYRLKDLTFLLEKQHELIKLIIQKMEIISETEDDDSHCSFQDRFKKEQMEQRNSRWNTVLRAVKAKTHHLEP

Structure (SMILES)	IC50
O=C(c1cc(-c2cccnc2)n(-c2ccc(C(F)(F)F)c(F)c2)n1)N1CCN2C(=O)OC3(CC3)[C@@H]2C1 [Compound 192]	0.001 to 5 µM
O=C(c1cc(-c2ccncc2)n(-c2ccc(C(F)(F)F)cc2)n1)N1CCC2(CC1)OCCO2 [Compound 145]	5 to 25 µM
O=C(c1cc(-c2ccncc2)n(-c2ccc(C(F)(F)F)c(F)c2)n1)N1CCC2(CC1)OCCO2 [Compound 163]	5 to 25 µM
CC1COC2(CCN(C(=O)c3cc(-c4ccncc4)n(-c4ccc(C(F)(F)F)c(F)c4)n3)CC2)O1 (stereo not drawn) [Compound 114]	> 25 µM
O=C(c1cc(-c2ccncc2)n(-c2ccc(C(F)(F)F)nc2)n1)N1CCC(N2C(=O)Cc3ccccc32)CC1 [Compound 119]	> 25 µM

Same assay, conditions: HEK293 cells expressing human TRPA1; IC50 class after addition of reference TRPA1 agonist (FFA, AITC or 4-HNE); read-out: human TRPA1-HEK Activity

Structure (SMILES)	IC50
Cc1ccc(-c2cc(C(=O)N3CCC4(CC3)C(=O)NCN4c3ccc(F)cc3)nn2-c2ccc(C(F)(F)F)c(F)c2)cn1 [Compound 262]	5 to 25 µM
CC(C)(C)c1ccc(-n2nc(C(=O)N3CCC4(CC3)C(=O)NCN4c3ccc(F)c(F)c3)cc2-c2cccnc2)cc1 [Compound 217]	0.001 to 5 µM
O=C(c1cc(-c2cncc(F)c2)n(-c2ccc(C(F)(F)F)c(F)c2)n1)N1CCC2(CC1)C(=O)NCN2c1ccc(F)cc1 [Compound 318]	0.001 to 5 µM
O=C(c1cc(-c2cccnc2)n(-c2ccc(C(F)(F)F)cc2C(F)(F)F)n1)N1CCC(n2c(=O)[nH]c3ccc(F)c(F)c32)CC1 [Compound 236]	0.001 to 5 µM
O=C(c1cc(-c2ccncc2)n(-c2cc(F)c(F)c(F)c2)n1)N1CCC(n2c(=O)[nH]c3cc(C(F)(F)F)ccc32)CC1 [Compound 176]	5 to 25 µM
O=C(c1cc(-c2ccncc2)n(-c2ccccc2)n1)N1CCN(c2cc(C(F)(F)F)cc(C(F)(F)F)c2)CC1 [Compound 33]	> 25 µM
O=C(c1cc(-c2cccnc2Cl)n(-c2ccc(C(F)(F)F)c(F)c2)n1)N1CCC(n2c(=O)[nH]c3ccc(F)c(F)c32)CC1 [Compound 247]	> 25 µM
N#Cc1cccc2[nH]c(=O)n(C3CCN(C(=O)c4cc(-c5cccnc5)n(-c5cc(F)c(F)c(F)c5)n4)CC3)c12 [Compound 232]	0.001 to 5 µM
CC1CC(n2c(=O)[nH]c3ccc(F)c(F)c32)CC(C)N1C(=O)c1cc(-c2cccnc2)n(-c2cc(F)c(F)c(F)c2)n1 (stereo not drawn) [Compound 203]	> 25 µM
O=C1OC2(CCN(C(=O)c3cc(-c4ccncc4)n(-c4ccc(F)c(F)c4)n3)CC2)c2ccccc21 [Compound 80]	> 25 µM
O=C(c1cc(-c2cccnc2)n(-c2ccc(OC(F)(F)F)c(F)c2)n1)N1CCC2(CC1)C(=O)NCN2c1ccc(F)c(F)c1 [Compound 214]	0.001 to 5 µM
O=C(c1cc(-c2ccncc2)n(-c2cc(C(F)(F)F)cc(C(F)(F)F)c2)n1)N1CCC2(CC1)C(=O)NCN2c1ccccc1 [Compound 158]	5 to 25 µM
O=C(c1cc(-c2ccncc2)n(-c2ccccc2)n1)N1CCC2(CC1)C(=O)NCN2c1ccccc1 [Compound 8]	5 to 25 µM
O=C(c1cc(-c2ccncc2)n(-c2ccc3c(c2)OCO3)n1)N1CCC(n2c(=O)[nH]c3ccccc32)CC1 [Compound 156]	> 25 µM
O=C(c1cc(-c2ccncc2)n(-c2ccc(C(F)(F)F)cc2)n1)N1CCC2(CC1)C(=O)NCN2c1ccc(Cl)cc1 [Compound 56]	> 25 µM
O=C(c1cc(-c2ccncc2)n(-c2ccc(C(F)(F)F)nc2)n1)N1CCC(n2c(=O)[nH]c3ccccc32)CC1 [Compound 165]	> 25 µM
O=C(c1cc(-c2cccnc2)n(-c2ccc(F)c(C(F)(F)F)c2)n1)N1CCC(n2c(=O)[nH]c3cc(F)c(F)c(F)c32)CC1 [Compound 297]	0.001 to 5 µM
O=C(c1cc(-c2ccncc2)n(-c2ccc(F)c(F)c2)n1)N1CCN2C(=O)OC[C@@H]2C1 [Compound 94]	> 25 µM
O=C1OC2(CCN(C(=O)c3cc(-c4ccncc4)n(-c4ccc(C(F)(F)F)c(F)c4)n3)CC2)c2ccc(Cl)cc21 [Compound 103]	> 25 µM
N#Cc1ccc(-n2nc(C(=O)N3CCC4(CC3)C(=O)NCN4c3ccc(F)c(F)c3)cc2-c2cccnc2)cc1F [Compound 216]	0.001 to 5 µM
O=C(c1cc(-c2ccncc2)n(-c2ccc(F)cc2F)n1)N1CCC2(CC1)C(=O)NCN2c1ccccc1 [Compound 152]	> 25 µM
N#Cc1ccc(-n2nc(C(=O)N3CCC4(CC3)C(=O)NCN4c3ccc(F)c(F)c3)cc2-c2cccnc2)cc1 [Compound 213]	0.001 to 5 µM
O=C(c1cc(-c2ccncc2)n(-c2cnccn2)n1)N1CCC(n2c(=O)[nH]c3ccccc32)CC1 [Compound 168]	5 to 25 µM
O=C(c1cc(-c2cccnc2)n(-c2ccc(C(F)(F)F)c(C(F)(F)F)c2)n1)N1CCC(n2c(=O)[nH]c3ccc(F)c(F)c32)CC1 [Compound 285]	0.001 to 5 µM
CC1CC(n2c(=O)[nH]c3ccccc32)CCN1C(=O)c1cc(-c2cccnc2)n(-c2ccc(C(F)(F)F)c(F)c2)n1 (stereo not drawn) [Compound 261]	0.001 to 5 µM

Structure (SMILES)	IC50
O=C(c1nn(-c2ccc(F)c(C(F)(F)F)c2)c2c1CCc1ncccc1-2)N1CCC(n2c(=O)[nH]c3ccc(F)c(F)c32)CC1 [Compound 314]	0.001 to 5 µM
O=C1Nc2ccc(Cl)cc2C2(CCN(C(=O)c3cc(-c4cccnc4)n(-c4ccc(F)c(C(F)(F)F)c4)n3)CC2)O1 [Compound 280]	0.001 to 5 µM
O=C(c1cc(-c2ccncc2)n(-c2ccc(C(F)(F)F)c(F)c2)n1)N1CCC(N2C(=O)OC[C@H]2c2ccccc2)CC1 [Compound 106]	> 25 µM
O=C(c1cc(-c2ccncc2)n(-c2ccc(C(F)(F)F)c(F)c2)n1)N1CCC2(CC1)C(=O)NCN2c1ccccc1 [Compound 161]	5 to 25 µM
O=C(c1cc(-c2cccnc2)n(-c2ccc(C(F)(F)F)c(F)c2)n1)N1CCC2(CC1)C(=O)NCN2c1ccc(F)c(Cl)c1 [Compound 189]	0.001 to 5 µM
O=C(c1cc(-c2ccncc2)n(-c2cnccn2)n1)N1CCN2C(=O)OC[C@@H]2C1 [Compound 136]	5 to 25 µM
O=C(Nc1ccc2c(c1)OC(F)(F)O2)c1cc(-c2ccncc2)n(-c2ccc(C(F)(F)F)c(F)c2)n1 [Compound 109]	> 25 µM
CN1C(=O)NC2(CCN(C(=O)c3cc(-c4ccncc4)n(-c4ccc(C(F)(F)F)c(F)c4)n3)CC2)C1=O [Compound 118]	> 25 µM
O=C(c1cc(-c2ccncc2)n(-c2ccc(C(F)(F)F)cc2)n1)N1CCC2(CC1)C(=O)NCN2c1ccc(F)cc1 [Compound 55]	0.001 to 5 µM
O=C(c1cc(-c2cccnc2)n(-c2cc(F)c(F)c(F)c2)n1)N1CCC2(CC1)C(=O)NCN2c1ccc(I)cc1 [Compound 200]	0.001 to 5 µM
Cn1c(=O)n(C2CCN(C(=O)c3cc(-c4ccncc4)n(-c4ccc(C(F)(F)F)nc4)n3)CC2)c2ccccc21 [Compound 126]	> 25 µM
O=C(c1cc(-c2ccncc2)n(-c2ccc(C(F)(F)F)c(F)c2)n1)N1CCC2(CC1)OCc1ccccc12 [Compound 101]	> 25 µM
O=C(c1cc(-c2cccnc2)n(-c2ccc(C(F)(F)F)cc2C(F)(F)F)n1)N1CCC2(CC1)C(=O)NCN2c1ccc(F)cc1 [Compound 322]	0.001 to 5 µM
Cc1cc(N2CNC(=O)C23CCN(C(=O)c2cc(-c4cccnc4)n(-c4cc(F)c(F)c(F)c4)n2)CC3)ccc1F [Compound 255]	0.001 to 5 µM
O=C(c1cc(-c2ccncc2)n(-c2ccccc2)n1)N1CCC2(CCCO2)CC1 [Compound 12]	> 25 µM
O=C(c1cc(-c2cccnc2)n(-c2ccc(C(F)(F)F)c(F)c2)n1)N1CCC2(CC1)C(=O)NCN2c1ccc(OC(F)F)cc1 [Compound 188]	0.001 to 5 µM
O=C(c1cc(-c2ccnnc2)n(-c2cc(F)c(F)c(F)c2)n1)N1CCC(n2c(=O)[nH]c3ccc(F)c(F)c32)CC1 [Compound 321]	0.001 to 5 µM
O=C(c1cc(-c2ccncc2)n(-c2ccc(F)c(F)c2)n1)N1CC(=O)N2CCc3ccccc3C2C1 (stereo not drawn) [Compound 82]	> 25 µM
O=C(Nc1ccc2c(c1)COC2=O)c1cc(-c2ccncc2)n(-c2ccc(C(F)(F)F)cc2)n1 [Compound 70]	5 to 25 µM
O=C(c1cc(-c2cccnc2)n(-c2ccc(C(F)(F)F)c(F)c2)n1)N1CCC2(CC1)C(=O)NCN2c1ccc(I)cc1 [Compound 183]	> 25 µM
O=C(c1cc(-c2cnccn2)n(-c2ccc(F)c(C(F)(F)F)c2)n1)N1CCC(n2c(=O)[nH]c3ccc(F)c(F)c32)CC1 [Compound 305]	0.001 to 5 µM
O=C(c1cc(-c2ccncc2)n(-c2ccc(F)c(F)c2)n1)N1CCC2(CC1)NCN(c1ccccc1)C2=O [Compound 95]	> 25 µM
O=C1CSC2(CCN(C(=O)c3cc(-c4ccncc4)n(-c4ccc(C(F)(F)F)c(F)c4)n3)CC2)N1 [Compound 111]	> 25 µM
CN1C(=O)NC2(CCN(C(=O)c3cc(-c4ccncc4)n(-c4cnccn4)n3)CC2)C1=O [Compound 139]	> 25 µM

— patent publication US9951046B2, “TRPA1 modulators” (Algomedix, Inc., priority 2014, dated 2018)
